Results as given in PMC9330922, “Genomewide Analysis and Biological Characterization of Cathelicidins with Potent Antimicrobial Activity and Low Cytotoxicity from Three Bat Species” (Antibiotics, 2022).
Structures can show the parent of a compound that is named as a salt. Where two headings read alike, the source gives them in different places. No end group written: not given here.

How the values were obtained:
[1] = system: Bacillus cereus ATCC 10876; test: microbe, parasite or virus in culture; assay type: cell-based; settings: MHB; for MIC: Bacillus cereus, ATCC10876, value in brackets, WST colorimetric, 37 °C 6 h + 2 h, triplicate, read-out: Minimum Inhibitory Concentration; for Minimum Inhibitory Concentration: Microbial Viability Assay Kit-WST, 1.5 × 10^5 CFU/well, 37 °C 6 h + 2 h coloring reagent, A450, triplicate
Protocol: (§1) The antibacterial activities of the chemically synthesized peptides were evaluated against a panel of bacteria consisting of 6 Gram-negative strains, including E. coli ATCC 25922 (American Type Culture Collection, Manassas, VA, USA), P. aeruginosa ATCC 27853, S. Typhimurium ATCC 14028, A. baumannii KCTC (Korean Collection for Type Cultures, Jeongeup, Korea) 23254, K. pneumoniae KCTC 1726, and E. cloacae ATCC 13047, and 6 Gram-positive strains, including S. aureus ATCC 6538, B. cereus ATCC 10876, E. faecalis ATCC 29212, S. agalactiae ATCC 27956, S. dysgalactiae ATCC 27957, and S. equi ATCC 43079. Ampicillin (Sigma-Aldrich, St. Louis, MO, USA), chloramphenicol (Sigma-Aldrich), and gentamicin sulfate (Sigma-Aldrich) were used as controls for antibacterial activity. The MIC was determined by a colorimetric method using the Microbial Viability Assay Kit-WST (Dojindo, Kumamoto, Japan) according to the manufacturer’s manual and the Clinical and Laboratory Standards Institute (CLSI) guidelines (2018). Four colonies of each bacterium were inoculated into 5 mL of Luria-Bertani (LB) broth medium (BD Bioscience, Franklin Lakes, NJ, USA) or brain heart infusion broth (BHIB; BD Bioscience) at 37 °C for 6 h with shaking at 220 rpm. E. faecalis and streptococci were cultured in BHIB because of their slow growth, whereas all other bacteria were cultured in LB medium. The cells were washed by sterile saline (0.9% NaCl) twice and adjusted in a single well of a 96-well plate at a cell density of 1.5 × 10^5 CFU/well in accordance with 0.5 McFarland standard. Subsequently, 180 µL/well of fresh Mueller-Hinton broth (MHB; BD Bioscience), except for E. faecalis and streptococci using BHIB was added to the plate using BHIB. Final concentrations of 1–40 µg/mL (0.3–19.3 μM) of each peptide and reference antibiotic were added to each well. The plates were then incubated at 37 °C for 6 h. Subsequently, 10 µL of the coloring reagent was added, and the mixture was incubated at 37 °C for 2 h. The absorbance of each well was measured at 450 nm using a microplate spectrophotometer (Bio-Rad, xMark spectrophotometer, Hercules, CA, USA). MIC values were determined when the difference in the absorbance values between treatments and blanks (media and coloring reagent only) was less than 0.05. Experiments were performed in triplicate.

[2] = system: Enterobacter cloacae subsp. cloacae ATCC 13047; test: microbe, parasite or virus in culture; assay type: cell-based; settings: MHB; for MIC: Enterobacter cloacae, ATCC13047, value in brackets, WST colorimetric, 37 °C 6 h + 2 h, triplicate, read-out: Minimum Inhibitory Concentration; for Minimum Inhibitory Concentration: Microbial Viability Assay Kit-WST, 1.5 × 10^5 CFU/well, 37 °C 6 h + 2 h coloring reagent, A450, triplicate
Protocol: as §1

[3] = system: Streptococcus dysgalactiae ATCC 27957; test: microbe, parasite or virus in culture; assay type: cell-based; settings: BHIB; for Minimum Inhibitory Concentration: Microbial Viability Assay Kit-WST, 1.5 × 10^5 CFU/well, 37 °C 6 h + 2 h coloring reagent, A450, triplicate; for MIC: Streptococcus dysgalactiae, ATCC27957, value in brackets, WST colorimetric, 37 °C 6 h + 2 h, triplicate, read-out: Minimum Inhibitory Concentration
Protocol: as §1

[4] = system: Enterococcus faecalis ATCC 29212; test: microbe, parasite or virus in culture; assay type: cell-based; settings: BHIB; for MIC: Enterococcus faecalis, ATCC29212, value in brackets, WST colorimetric, 37 °C 6 h + 2 h, triplicate, read-out: Minimum Inhibitory Concentration; for Minimum Inhibitory Concentration: Microbial Viability Assay Kit-WST, 1.5 × 10^5 CFU/well, 37 °C 6 h + 2 h coloring reagent, A450, triplicate
Protocol: as §1

[5] = system: Streptococcus agalactiae ATCC 27956; test: microbe, parasite or virus in culture; assay type: cell-based; settings: BHIB; for Minimum Inhibitory Concentration: Microbial Viability Assay Kit-WST, 1.5 × 10^5 CFU/well, 37 °C 6 h + 2 h coloring reagent, A450, triplicate; for MIC: Streptococcus agalactiae, ATCC27956, value in brackets, WST colorimetric, 37 °C 6 h + 2 h, triplicate, read-out: Minimum Inhibitory Concentration
Protocol: as §1

[6] = system: Klebsiella pneumoniae subsp. pneumoniae KCTC 1726; test: microbe, parasite or virus in culture; assay type: cell-based; settings: MHB; for MIC: Klebsiella pneumoniae, KCTC1726, read-out: Minimum Inhibitory Concentration
Protocol: as §1

[7] = system: Acinetobacter baumannii KCTC 23254; test: microbe, parasite or virus in culture; assay type: cell-based; settings: MHB; for MIC: Acinetobacter baumannii, KCTC23254, value in brackets, WST colorimetric, 37 °C 6 h + 2 h, triplicate, read-out: Minimum Inhibitory Concentration; for Minimum Inhibitory Concentration: Microbial Viability Assay Kit-WST, 1.5 × 10^5 CFU/well, 37 °C 6 h + 2 h coloring reagent, A450, triplicate
Protocol: as §1

[8] = system: Salmonella enterica serovar Typhimurium ATCC 14028; test: microbe, parasite or virus in culture; assay type: cell-based; settings: MHB; for Minimum Inhibitory Concentration: Microbial Viability Assay Kit-WST, 1.5 × 10^5 CFU/well, 37 °C 6 h + 2 h coloring reagent, A450, triplicate; for MIC: Salmonella enterica, value in brackets, WST colorimetric, 37 °C 6 h + 2 h, triplicate, read-out: Minimum Inhibitory Concentration
Protocol: as §1

[9] = system: Pseudomonas aeruginosa ATCC 27853; test: microbe, parasite or virus in culture; assay type: cell-based; settings: MHB; for Minimum Inhibitory Concentration: Microbial Viability Assay Kit-WST, 1.5 × 10^5 CFU/well, 37 °C 6 h + 2 h coloring reagent, A450, triplicate; for MIC: Pseudomonas aeruginosa, ATCC27853, value in brackets, WST colorimetric, 37 °C 6 h + 2 h, triplicate, read-out: Minimum Inhibitory Concentration
Protocol: as §1

[10] = system: Streptococcus equi subsp. zooepidemicus ATCC 43079; test: microbe, parasite or virus in culture; assay type: cell-based; settings: BHIB; for Minimum Inhibitory Concentration: Microbial Viability Assay Kit-WST, 1.5 × 10^5 CFU/well, 37 °C 6 h + 2 h coloring reagent, A450, triplicate; for MIC: Streptococcus equi, ATCC43079, value in brackets, WST colorimetric, 37 °C 6 h + 2 h, triplicate, read-out: Minimum Inhibitory Concentration
Protocol: as §1

[11] = system: Escherichia coli ATCC 25922; test: microbe, parasite or virus in culture; assay type: cell-based; settings: MHB; for MIC: Escherichia coli, ATCC25922, 8 h, value in brackets, WST colorimetric, 37 °C 6 h + 2 h, triplicate, read-out: Minimum Inhibitory Concentration; for Minimum Inhibitory Concentration: Microbial Viability Assay Kit-WST, 1.5 × 10^5 CFU/well, 37 °C 6 h + 2 h coloring reagent, A450, triplicate
Protocol: as §1

[12] = system: Staphylococcus aureus ATCC 6538; test: microbe, parasite or virus in culture; assay type: cell-based; settings: MHB; for Minimum Inhibitory Concentration: Microbial Viability Assay Kit-WST, 1.5 × 10^5 CFU/well, 37 °C 6 h + 2 h coloring reagent, A450, triplicate; for MIC: Staphylococcus aureus, ATCC6538, value in brackets, WST colorimetric, 37 °C 6 h + 2 h, triplicate, read-out: Minimum Inhibitory Concentration
Protocol: as §1

[13] = system: panel of 12 reference bacteria, comprised of 6 Gram-negative strains and 6 Gram-positive strains; assay type: cell-based; settings: 6 h
Protocol: as §1

[14] = system: HaCaT cells; test: In vitro cytotoxicity assay, WST-1 cell viability; assay type: cell-based, Human
Protocol: HaCaT cells were cultured in Dulbecco’s modified Eagle’s medium (DMEM; Hyclone^TM, Logan, UT, USA) with 10% fetal bovine serum (FBS; Hyclone^TM) and 1% penicillin/streptomycin (Pen-Strep; Hyclone^TM) up to 80% confluence at 37 ℃ and 5% CO2. Cells were detached from the plate by adding 0.25% trypsin-EDTA solution (Gibco^TM; Carlsbad, CA, USA). In a 96-well plate, 2 × 10^4 cells were seeded per well and cultured for 24 h. Subsequently, the medium was replaced with 100 μL DMEM (Hyclone^TM) containing 10% heat-inactivated FBS. Peptides were added to each well at concentrations of 64 μg/mL and 160 μg/mL. As references for complete cell lysis, 64 μg/mL melittin (Sigma-Aldrich) and Triton X-100 (Sigma-Aldrich) were used. Untreated cells were used as negative controls. After 24 h incubation at 37 ℃ and 5 % CO2, 10 μL of coloring solution (Cell Proliferation Reagent WST-1^TM; Sigma Aldrich) was added to each well according to the manufacturer’s instructions. The absorbance at 450 nm (treated group and control) and 650 nm (background) was measured in each well using a microplate reader (xMarkTM spectrophotometer; Bio-Rad). The cell viability was calculated using the following equation. All experiments were performed in triplicate. Cell viability (%) = 100 × (OD (treated group) − OD(Background))/(OD (negative control) − OD (Background))(2)

[15] = value in brackets, WST colorimetric, 37 °C 6 h + 2 h, triplicate
[16] = Microbial Viability Assay Kit-WST, 1.5 × 10^5 CFU/well, 37 °C 6 h + 2 h coloring reagent, A450, triplicate

Compound | MIC [1] [µM] | Minimum Inhibitory Concentration [1] [µg/mL] | MIC [2] [µM] | Minimum Inhibitory Concentration [2] [µg/mL] | Minimum Inhibitory Concentration [3] [µg/mL] | MIC [3] [µM] | MIC [4] [µM] | Minimum Inhibitory Concentration [4] [µg/mL] | Minimum Inhibitory Concentration [5] [µg/mL] | MIC [5] [µM] | MIC [6, 15] [µM] | MIC [7] [µM] | Minimum Inhibitory Concentration [7] [µg/mL] | Minimum Inhibitory Concentration [8] [µg/mL] | MIC [8] [µM] | Minimum Inhibitory Concentration [9] [µg/mL] | MIC [9] [µM] | Minimum Inhibitory Concentration [10] [µg/mL] | MIC [10] [µM] | MIC [11] [µM] | further results
O=C(N[C@H](CO)[C@H](O)c1ccc([N+](=O)[O-])cc1)C(Cl)Cl [chloramphenicol] | 31 | 10 | 15.5 | 5 | 4 | 12.4 | 31 | 10 | 5 | 15.5 | > 248 | 118 | 38 | 5 | 15.5 | 80 | 248 | 5 | 15.5 | 9.3 | Minimum Inhibitory Concentration [6, 16]: > 80 µg/mL; Minimum Inhibitory Concentration [11]: 3 µg/mL; Minimum Inhibitory Concentration [12]: 7.5 µg/mL; MIC [12]: 23.2 µM
ILGPALRIGGRIAGRIAGKLIGDAINRHRERNRQRRG [PD-CATH] |  |  |  |  |  |  |  |  |  |  |  |  |  |  |  |  |  |  |  |  | MIC, range over strains [13]: 0.7 to 7.3 µM; concentration at which the viability of human keratinocyte was affected [14]: 160 µg/mL
CC1(C)S[C@@H]2[C@H](NC(=O)[C@H](N)c3ccccc3)C(=O)N2[C@H]1C(=O)O [Ampicillin] | 229 | 80 | > 229 | > 80 | 2 | 5.7 | 28.6 | 10 | 4 | 11.4 | > 229 | > 229 | > 80 | > 80 | > 229 | > 640 | > 1830 | 2 | 5.7 | 14.3 | Minimum Inhibitory Concentration [6, 16]: > 80 µg/mL; Minimum Inhibitory Concentration [11]: 5 µg/mL; Minimum Inhibitory Concentration [12]: 2 µg/mL; MIC [12]: 5.7 µM
CNC(C)C1CCC(N)C(OC2C(N)CC(N)C(OC3OCC(C)(O)C(NC)C3O)C2O)O1 (stereo not drawn) [Gentamicin, gentamicin sulfate] | 2.1 | 1 | 2.1 | 1 | 15 | 31.5 | 189 | 90 | 75 | 158 | 39.8 | 21 | 10 | 1 | 2.1 | 1 | 2.1 | 45 | 94.5 | 2.1 | MIC [6, 16]: 19 µg/mL; Minimum Inhibitory Concentration [11]: 1 µg/mL; Minimum Inhibitory Concentration [12]: 1 µg/mL; MIC [12]: 2.1 µM
IAGRIAGKLIGDAINRHRERNRQRR [ΔPD-CATH] |  |  |  |  |  |  |  |  |  |  |  |  |  |  |  |  |  |  |  |  | MIC (no observable antibacterial activity) [13]: > 13.7 µM
